Like-named read-outs stand apart in the source and are kept apart here.
Columns and labels:
[1] = tested on: MOLM13; assay: CellTiter-Glo cell viability assay, MOLM13; format: cell-based; details: Homo sapiens
Procedure: (§1) As TNF-α and related signaling cascades represent crucial factors for the single-agent activity of IAP-targeting compounds,[29],[38],[39],[55] the viability inhibition of sensitive cell lines was evaluated in the presence and absence of this inflammatory stimulus. […] These effects were independent of IAP baseline levels (Figure S16), which is in agreement with the previous studies of IAP antagonists.
(§2) Cells were seeded in 384-well plates with respective treatments, and plates were incubated at 37 °C for 96 h. Viability assays were performed with or without the addition of TNF-α at 1 ng/mL. The cell viability readout was measured using the CellTiter-Glo Luminescent Cell Viability Assay (Promega, Madison, USA) and measured with a Synergy LX Multi-Mode plate reader (BioTek, Vermont, USA). All conditions were normalized to the DMSO-treated control. Data represents the mean ± SD of biological triplicates.

[2] = tested on: RPMI-8826; assay: CellTiter-Glo cell viability assay, RPMI-8826; format: cell-based
Procedure: as §1, §2

[3] = tested on: NCI-H929; assay: CellTiter-Glo cell viability assay, NCI-H929; format: cell-based; details: Homo sapiens
Procedure: as §1, §2

[4] = biological target: cIAP1 (Homo sapiens, UniProt Q13490); assay: Immunoblotting (western blot) quantification of cIAP1 levels in MM.1S cells; design: Dmax: dose or concentration left out as unconfirmed
Procedure: (§3) To evaluate the capability of our panel of hetero-PROTACs for E3 ligase degradation, VHL19, VHL30, CRBN, cIAP1, cIAP2, and XIAP levels were quantified by western blot analyses. […] SDS-PAGE was performed, and proteins were then transferred onto PVDF membranes. Blotted membranes were blocked with 5% milk in Tris-buffered saline/Tween20 (TBST). Primary antibodies were diluted in 5% BSA in TBST, and incubations were performed overnight at 4 °C. Secondary HRP-conjugated antibodies diluted in 5% milk were incubated for 1 h at room temperature. Detection of proteins on PVDF was carried out using the WesternBright ECL HRP substrate or the WesternBright Sirius HRP substrate (Advansta, San Jose, USA) and imaged with LAS 4000× (Fujifilm). Membranes were subjected to 10 min incubation with Restore Western Blot Stripping Buffer (Thermo Fisher Scientific, Waltham, USA), followed by TBST washes. After brief re-activation with methanol, the membranes were blocked, and further probing of proteins was carried out.
(§4) Quantification of blots was performed using ImageJ software (National Institutes of Health).

[5] = biological target: XIAP (Homo sapiens, UniProt P98170); assay: diaPASEF quantitative proteomics in MM.1S cells: XIAP; format: cell-based; design: endogenous in cells; host or cells: MM.1S; details: 3 h; for logFC XIAP: 0.1 μM, log2 fold change compound vs CTRLs (limma); for XIAP level in global proteomics (in words): 100 nM, diaPASEF
Procedure: To analyze the proteome-wide degradation selectivity of hetero-PROTACs 9, 25, and 27, a diaPASEF-based mass spectrometry approach was employed.[54] MM.1S cells were treated with 100 nM PROTACs for 3 h. […] Accordingly, global proteomic plots show the mathematically imputed levels of IAP proteins in treatment groups if the corresponding IAP was detected in the control treatment (see also Experimental Section).
MM1s cells were treated with DMSO or 0.1 μM of compound for 3 h. The cells were harvested by centrifugation and washed with phosphate-buffered saline before snap-freezing in liquid nitrogen. The cells were lysed by addition of lysis buffer (8 M urea, 50 mM NaCl, 50 mM 4-(2-hydroxyethyl)-1-piperazine-ethanesulfonic acid (EPPS) pH 8.5, protease, and phosphatase inhibitors) and homogenization by bead beating (BioSpec) for three repeats of 30 s at 2400. Bradford assay was used to determine the final protein concentration in the clarified cell lysate. 50 μg of protein for each sample was reduced, alkylated, and precipitated using methanol/chloroform as previously described,[64] and the resulting washed precipitated protein was allowed to air dry. The precipitated protein was resuspended in 4 M urea, 50 mM HEPES pH 7.4, followed by dilution to 1 M urea with the addition of 200 mM EPPS, pH 8. Proteins were first digested with LysC (1:50; enzyme/protein) for 12 h at RT. The LysC digestion was diluted to 0.5 M urea with 200 mM EPPS pH 8, followed by digestion with trypsin (1:50; enzyme/protein) for 6 h at 37 °C. Sample digests were acidified with formic acid to a pH of 2–3 prior to desalting using C18 solid-phase extraction plates (SOLA, Thermo Fisher Scientific). Desalted peptides were dried in a vacuum centrifuge and reconstituted in 0.1% formic acid for LC–MS analysis.
Data were collected using a TimsTOF Pro2 (Bruker Daltonics, Bremen, Germany) coupled to a nanoElute LC pump (Bruker Daltonics, Bremen, Germany) via a CaptiveSpray nanoelectrospray source. Peptides were separated on a reversed-phase C18 column (25 cm × 75 μm ID, 1.6 μM, IonOpticks, Australia) containing an integrated captive spray emitter. Peptides were separated using a 50 min gradient of 2–30% buffer B (acetonitrile in 0.1% formic acid) with a flow rate of 250 nL/min and column temperature maintained at 50 °C.
Data-Dependent Acquisition (DDA) was performed in the Parallel Accumulation-Serial Fragmentation (PASEF) mode to determine effective ion mobility windows for downstream diaPASEF data collection.[54] The diaPASEF parameters included 100% duty cycle using accumulation and ramp times of 50 ms each, 1 TIMS-MS scan, and 10 PASEF ramps per acquisition cycle. The TIMS-MS survey scan was acquired between 100–1700 m/z and 1/K0 of 0.7–1.3 V × s/cm^2. Precursors with 1–5 charges were selected, and those that reached an intensity threshold of 20,000 arbitrary units were actively excluded for 0.4 min. The quadrupole isolation width was set to 2 m/z for m/z < 700 and 3 m/z for m/z > 800, with the m/z between 700 and 800 m/z being interpolated linearly. The TIMS elution voltages were calibrated linearly with three points (Agilent ESI-L Tuning Mix Ions; 622, 922, 1222 m/z) to determine the reduced ion mobility coefficients (1/K0). To perform diaPASEF, the precursor distribution in the DDA m/z-ion mobility plane was used to design an acquisition scheme for DIA data collection, which included two windows in each 50 ms diaPASEF scan. Data was acquired using 16 of these 25 Da precursor double window scans (creating 32 windows), which covered the diagonal scan line for doubly and triply charged precursors, with singly charged precursors able to be excluded by their position in the m/z-ion mobility plane. These precursor isolation windows were defined between 400–1200 m/z and 1/K0 of 0.7–1.3 V × s/cm^2. […]

[6] = tested on: DB; assay: CellTiter-Glo cell viability assay, DB; format: cell-based; details: Homo sapiens
Procedure: as §1, §2

[7] = Log D7.4 measurement by chromatographic (fast-gradient HPLC) method; details: pH 7.4
Procedure: The system was calibrated by plotting the retention times of six different drugs (atenolol, metoprolol, labetalol, diltiazem, triphenylene, and permethrin) versus their literature-known log D7.4 in a calibration line (R^2 = 0.99). Subsequently, the mean retention times of the analytes were taken to calculate their log D7.4 values with the aid of the calibration line. At least two independent measurements of each analyte were performed.

[8] = biological target: CRBN (Homo sapiens, UniProt Q96SW2); assay: Immunoblotting (western blot) quantification of CRBN levels in MM.1S cells; details: MM1.S, 16 h, read-out: %remaining protein CRBN
Procedure: as §3, §4

[9] = tested on: IKZF3; assay: Immunoblotting (western blot) quantification of IKZF3 levels in MM.1S cells; details: for %remaining protein IKZF3: 16 h treatment at 0.1 μM, normalized to loading control and DMSO
Procedure: as §3, §4

[10] = MM1.S, 16 h, read-out: %remaining protein cIAP1, MM.1S cells, 16 h treatment at 0.1 μM, normalized to loading control and DMSO
[11] = SI csv, head prints only the cell line, no quantity or unit, values parallel Table 1/S8, read-out: DB

Chain of cIAP1 (Q13490 whole entry): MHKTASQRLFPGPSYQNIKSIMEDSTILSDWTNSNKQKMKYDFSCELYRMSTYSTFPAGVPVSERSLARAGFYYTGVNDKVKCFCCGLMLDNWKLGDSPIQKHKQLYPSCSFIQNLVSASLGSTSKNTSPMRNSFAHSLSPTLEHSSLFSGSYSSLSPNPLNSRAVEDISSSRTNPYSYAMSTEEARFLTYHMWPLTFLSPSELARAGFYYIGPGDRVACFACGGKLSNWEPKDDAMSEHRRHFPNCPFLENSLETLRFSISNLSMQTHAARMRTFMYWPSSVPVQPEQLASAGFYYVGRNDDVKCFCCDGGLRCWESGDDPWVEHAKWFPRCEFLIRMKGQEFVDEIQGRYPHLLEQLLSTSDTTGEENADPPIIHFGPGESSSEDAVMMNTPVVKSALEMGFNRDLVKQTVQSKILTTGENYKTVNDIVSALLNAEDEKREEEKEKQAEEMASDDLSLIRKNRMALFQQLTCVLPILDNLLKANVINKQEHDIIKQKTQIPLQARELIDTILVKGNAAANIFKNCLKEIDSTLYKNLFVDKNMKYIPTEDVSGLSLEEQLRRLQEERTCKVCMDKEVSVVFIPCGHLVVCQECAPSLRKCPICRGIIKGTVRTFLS
Chain of XIAP (P98170 whole entry): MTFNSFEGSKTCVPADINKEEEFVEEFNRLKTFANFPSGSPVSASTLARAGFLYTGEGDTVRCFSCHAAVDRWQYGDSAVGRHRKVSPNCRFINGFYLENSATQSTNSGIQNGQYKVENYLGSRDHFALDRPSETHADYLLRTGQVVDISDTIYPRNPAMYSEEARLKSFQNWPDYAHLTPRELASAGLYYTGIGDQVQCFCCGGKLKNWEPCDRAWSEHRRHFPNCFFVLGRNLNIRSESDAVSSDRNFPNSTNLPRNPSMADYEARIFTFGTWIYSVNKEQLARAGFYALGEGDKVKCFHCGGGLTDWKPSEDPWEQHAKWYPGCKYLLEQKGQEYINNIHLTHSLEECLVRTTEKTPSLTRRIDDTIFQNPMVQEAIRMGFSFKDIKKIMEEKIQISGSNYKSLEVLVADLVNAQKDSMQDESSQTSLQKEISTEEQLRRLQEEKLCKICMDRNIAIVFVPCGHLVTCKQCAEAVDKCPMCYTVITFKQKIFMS
Chain of CRBN (Q96SW2 whole entry): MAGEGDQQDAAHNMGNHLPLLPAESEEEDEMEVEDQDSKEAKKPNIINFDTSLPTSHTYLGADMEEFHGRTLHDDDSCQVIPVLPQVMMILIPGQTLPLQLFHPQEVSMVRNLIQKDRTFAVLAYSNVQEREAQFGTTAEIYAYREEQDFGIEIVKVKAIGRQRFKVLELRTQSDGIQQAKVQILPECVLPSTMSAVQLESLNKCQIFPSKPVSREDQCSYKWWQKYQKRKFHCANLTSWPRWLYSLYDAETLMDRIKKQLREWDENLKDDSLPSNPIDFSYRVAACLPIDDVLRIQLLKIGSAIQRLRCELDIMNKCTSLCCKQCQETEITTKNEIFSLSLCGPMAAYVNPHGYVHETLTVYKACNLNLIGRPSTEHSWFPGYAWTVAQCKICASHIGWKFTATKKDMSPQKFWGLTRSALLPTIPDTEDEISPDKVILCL

Compound | remaining activity at 0.1 µM [4, 10] | logFC XIAP [5] | XIAP level in global proteomics (in words) [5] | IC50 [6, 11] | chromatographic logD [7] | remaining activity at 0.1 µM [8] | %remaining protein IKZF3 [9] | further results
CN[C@@H](C)C(=O)N[C@H](C(=O)N1C[C@@H](Oc2cccc(OCCCCC(=O)N[C@H](C(=O)N3C[C@H](O)C[C@H]3C(=O)N[C@@H](C)c3ccc(-c4scnc4C)cc3)C(C)(C)C)c2)C[C@H]1C(=O)N[C@@H]1CCCc2ccccc21)C1CCCCC1 [PROTAC 9, (2S,4S)-1-((S)-2-Cyclohexyl-2-((S)-2-(methylamino)propanamido)acetyl)-4-(3-((5-(((S)-1-((2S,4R)-4-hydroxy-2-(((S)-1-(4-(4-methylthiazol-5-yl)phenyl)ethyl)carbamoyl)pyrrolidin-1-yl)-3,3-dimethyl-1-oxobutan-2-yl)amino)-5-oxopentyl)oxy)phenoxy)-N-((R)-1,2,3,4-tetrahydronaphthalen-1-yl)pyrrolidine-2-carboxamide] | 5% | -1.764 | below the detection level | 510 nM | – | – | – | IC50 ([1]; MOLM-13, AML cell line, 96 h, TNFα-challenged, read-out: IC50 cell viability MOLM13): 2.1 nM; IC50 ([2]; MM cell line, 96 h, TNFα-challenged, read-out: IC50 cell viability RPMI-8826): 2540 nM; IC50 ([3]; NCI-H929, MM cell line, 96 h, TNFα-challenged, read-out: IC50 cell viability NCI-H929): 8.5 nM; Dmax ([4]; MM1.S, read-out: Dmax cIAP1 (maximum degradation), MM.1S cells, 16 h): 99%; Dmax cIAP1 (maximum degradation) ([4]; MM.1S cells, 16 h, at 0.1 μM): >99%; DC50 ([4]; read-out: DC50,16h cIAP1, MM.1S cells, 16 h, densitometric quantification of western blots, n = 4): 2.4 nM; IC50 ([6]; DB, DLBCL cell line, 96 h, TNFα-challenged, read-out: IC50 cell viability DB): 460 nM
CN[C@@H](C)C(=O)N[C@@H](C(=O)N1CCC[C@H]1C(=O)N[C@@H]1c2ccccc2C[C@@H]1OCC#CC#CCO[C@H]1Cc2ccccc2[C@H]1NC(=O)[C@@H]1CCCN1C(=O)[C@H](NC(=O)[C@H](C)NC)C1CCCCC1)C1CCCCC1 [AZD5582, reference compound] | – | – | did not cause XIAP degradation | 73 nM | 4.1 | – | – | IC50 ([1]; MOLM-13, SI csv, head prints only the cell line, no quantity or unit, values parallel Table 1/S8, read-out: MOLM13): 2 nM; IC50 ([2]; SI csv, head prints only the cell line, no quantity or unit, values parallel Table 1/S8, read-out: RPMI-8826): 470 nM; IC50 ([3]; SI csv, head prints only the cell line, no quantity or unit, values parallel Table 1/S8, read-out: NCI-H929): 14 nM; cIAP1 degradation (in words) ([4]; MM.1S cells, 16 h, western blot, 0.1 or 1 μM): substantial degradation
CN[C@@H](C)C(=O)N[C@H](C(=O)N1C[C@@H](Oc2cccc(OCCOCCCCCCOCCCCCCNc3cccc4c3C(=O)N(C3CCC(=O)NC3=O)C4=O)c2)C[C@H]1C(=O)N[C@@H]1CCCc2ccccc21)C1CCCCC1 (stereo partly drawn) [PROTAC 25, (2S,4S)-1-((S)-2-Cyclohexyl-2-((S)-2-(methylamino)propanamido)acetyl)-4-(3-(2-((6-((6-((2-(2,6-dioxopiperidin-3-yl)-1,3-dioxoisoindolin-4-yl)amino)hexyl)oxy)hexyl)oxy)ethoxy)phenoxy)-N-((R)-1,2,3,4-tetrahydronaphthalen-1-yl)pyrrolidine-2-carboxamide] | – | -3.7 | below the detection level | – | 6 | 91% | 95% | IC50 ([1]; MOLM-13, read-out: MOLM13): 52 nM; IC50 ([2]; read-out: RPMI-8826): 1520 nM; IC50 ([3]; NCI-H929, 96 h, read-out: IC50 cell viability NCI-H929): 27 nM; remaining activity at 0.1 µM ([4]; MM1.S, 16 h, read-out: %remaining protein cIAP1): 5%; IC50 ([6]; DB, read-out: DB): 160 nM; IKZF3 degradation (in words) ([9]; 16 h, 1 μM): substantial IKZF3 degradation at 1 μM
CN[C@@H](C)C(=O)N[C@H](C(=O)N1C[C@@H](Oc2cccc(OCCCCCCOCCCCCCOCCCCCCNc3cccc4c3C(=O)N(C3CCC(=O)NC3=O)C4=O)c2)C[C@H]1C(=O)N[C@@H]1CCCc2ccccc21)C1CCCCC1 (stereo partly drawn) [PROTAC 27, (2S,4S)-1-((S)-2-Cyclohexyl-2-((S)-2-(methylamino)propanamido)acetyl)-4-(3-((6-((6-((6-((2-(2,6-dioxopiperidin-3-yl)-1,3-dioxoisoindolin-4-yl)amino)hexyl)oxy)hexyl)oxy)hexyl)oxy)phenoxy)-N-((R)-1,2,3,4-tetrahydronaphthalen-1-yl)pyrrolidine-2-carboxamide] | 27% | – | selective XIAP degradation | – | 7.2 | 95% | 95% | –

From paper PMC10108347, “Heterobifunctional Ligase Recruiters Enable pan-Degradation of Inhibitor of Apoptosis Proteins” (Journal of Medicinal Chemistry, 2023)
